# Assay results from patent US20040029130A1, “Drug screening systems and assays” (priority 2000, published 2004).
# “Also recorded” adds a separate entry of the source.
# How the values were obtained:
# [1] = tested on: non-homologous end-joining (NHEJ) of DNA by PC-C (Ku70/80, DNA-PKcs, XRCC4, DNA ligase IV); test: DNA end-joining (NHEJ) complementation assay with HeLa fraction PC-C; format: biochemical, human; conditions: for ability to stimulate DNA end-joining (NHEJ) by PC-C: FIG. 4C, 6A, 8; for stimulation of NHEJ by PC-C relative to IP6: FIG. 8; for concentration that saturates the NHEJ system / Kd: components derived from humans; for Kd: crude estimate, read-out: estimate of the Kd in the NHEJ system
# Method: Fraction PC-C was dialyzed for 2 hours against L buffer (20 mM Tris-HCl pH 8.0, 25 mM KOAc, 0.5 mM EDTA, 10% glycerol, 1 mM DTT) and stored at −80° C.
# End joining reactions (10 μl) were carried out in 50 mM HEPES pH 8.0, 40 mM KOAc, 0.5 mM Mg(OAc)2, 1 mM ATP, 1 mM DTT, 0.1 mg/ml BSA, contained 2-3 μl (3-5 μg) of PC-C and HindIII-linearized 5′-^32P-labeled pDEA7Z DNA (10 ng). Incubation was for 1 hour at 37° C. ^32P-labeled DNA products were deproteinized and analyzed by electrophoresis through 0.6% agarose gels followed by autoradiography. Quantification of joining efficiency was carried out by phosphorimaging and the data are presented as (% total ends-joinedsample)−(% total ends-joinedPC-C) unless otherwise stated. For assays of inositol phosphates, aqueous solutions were added directly to the end-joining reactions. For the screening of column fractions; 0.5-1 μl of diluted (in L buffer) or undiluted column fractions were added
# DNA-PK = target: T1, DNA-PK (Homo sapiens, UniProt P12956+P13010); test: Gel filtration analysis of 3H-inositol phosphate binding by DNA-PK; conditions: for binding by DNA-PK: gel filtration, 100 nM 3H-ligand, FIG. 7
# T1 construct: purchased Promega
# T1 sequence (P12956 2-609 limits assumed): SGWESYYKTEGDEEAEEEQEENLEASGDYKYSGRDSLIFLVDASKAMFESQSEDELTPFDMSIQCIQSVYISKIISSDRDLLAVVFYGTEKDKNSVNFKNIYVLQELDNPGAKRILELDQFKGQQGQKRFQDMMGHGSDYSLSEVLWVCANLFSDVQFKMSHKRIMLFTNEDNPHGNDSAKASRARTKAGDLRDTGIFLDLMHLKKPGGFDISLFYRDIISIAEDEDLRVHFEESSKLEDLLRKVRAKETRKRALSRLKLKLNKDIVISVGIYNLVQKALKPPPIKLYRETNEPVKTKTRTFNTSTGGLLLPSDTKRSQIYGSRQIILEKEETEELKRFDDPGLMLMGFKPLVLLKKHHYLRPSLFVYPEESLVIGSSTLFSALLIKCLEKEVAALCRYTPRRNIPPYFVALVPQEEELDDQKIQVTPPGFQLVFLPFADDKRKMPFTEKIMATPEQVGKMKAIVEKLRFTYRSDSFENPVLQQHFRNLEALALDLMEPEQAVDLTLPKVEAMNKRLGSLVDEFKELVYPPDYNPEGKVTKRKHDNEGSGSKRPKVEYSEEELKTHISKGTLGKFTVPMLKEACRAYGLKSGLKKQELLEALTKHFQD
# T1 sequence (P13010 2-732 limits assumed): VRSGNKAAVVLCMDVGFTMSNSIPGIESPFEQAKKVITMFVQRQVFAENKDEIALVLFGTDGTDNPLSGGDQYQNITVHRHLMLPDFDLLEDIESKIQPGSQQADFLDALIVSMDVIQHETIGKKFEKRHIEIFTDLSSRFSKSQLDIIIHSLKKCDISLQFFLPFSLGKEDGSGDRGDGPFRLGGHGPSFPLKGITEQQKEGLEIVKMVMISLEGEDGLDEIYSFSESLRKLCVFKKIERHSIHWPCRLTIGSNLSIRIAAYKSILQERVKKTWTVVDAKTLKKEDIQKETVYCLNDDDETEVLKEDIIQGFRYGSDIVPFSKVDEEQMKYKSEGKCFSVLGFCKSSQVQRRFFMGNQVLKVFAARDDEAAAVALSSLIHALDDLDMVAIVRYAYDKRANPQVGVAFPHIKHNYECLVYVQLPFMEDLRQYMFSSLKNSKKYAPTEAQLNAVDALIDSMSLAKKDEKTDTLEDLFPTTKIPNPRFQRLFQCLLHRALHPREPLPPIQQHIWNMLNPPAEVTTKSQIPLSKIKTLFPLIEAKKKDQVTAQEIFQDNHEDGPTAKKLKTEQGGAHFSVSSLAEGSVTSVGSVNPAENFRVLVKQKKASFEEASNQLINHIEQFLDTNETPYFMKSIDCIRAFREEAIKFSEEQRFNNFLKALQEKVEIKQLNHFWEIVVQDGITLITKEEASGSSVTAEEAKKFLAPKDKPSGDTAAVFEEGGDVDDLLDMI
# Method: Binding reactions (55 μl) were carried out in 25 mM HEPES pH 7.5, 50 mM KCl, 10 mM MgCl2, 1 mM DTT, 10% glycerol, 0.1% NP-40 with 5000 units of DNA-PK (Promega) or 1.8 mg/ml of protein size standards for gel filtration (BioRad) and 100 nM ^3H-IP6 or ^3H-IP3 at 4° C. for 30 min. Complexes were resolved on a Superose 12 PC3.2/30 column run in 50 mM HEPES pH 8.0, […], 0.1M KCl, 10% glycerol, 1 mM DTT at 40 μl/min. 50 μl fractions were collected; 20 μl samples of each fraction were used for ^3H scintilation counting (10 min/sample in 5 ml EcoscintA) and 10 μl were assayed for DNA-PK kinase activity using the SignaTECT DNA-PK assay system (Promega).
# The specificity of IP6 recognition by DNA-PK was assessed by competition trials using inositol hexasulphate (IS6). […] Addition of DNA-PK results in an increase in the mobility of the ^3H-IP6 indicating complex formation. IS6, presented in 10- and 100-fold molar excess have no effect on the amount of ^3H-IP6 bound by DNA-PK.
# phosphatases = conditions: cited from earlier work
# DNA-PKcs = target: T2, DNA-PKcs (Homo sapiens, UniProt P78527); test: Gel filtration binding with purified DNA-PKcs; conditions: absence of DNA, FIG. 10-11
# T2 construct: made in house
# Method: (§1) Superdex 200 gel filtration, 50 μl fractions, scint. counting 20 μl/fraction 100 nM ^3H-IP6, 100 nM Ku, 100 nM DNA ([…]), 100 nM PKcs. Running buffer. 50 mM HEPES, pH 8.0, 40 mM KOAc, 10% Glycerol, 0.1 M KCl, 1 mM DTT.
# (§2) Ku 70/80 and DNA-PKcs were purified to homogeneity and used to examine the binding of IP6 by DNA-PK ^3H-IP6 was used in these binding experiments and the curves presented in FIG. 10 represent the distribution of ^3H-IP6 along a gel filtration column under various conditions. ^3H-IP6 observed in a peak below 17 kD represents unbound ^3H-IP6. In the presence of purified Ku 70/80 (±DNA-PKcs) ^3H-IP6 elutes early from the column near the 150 MW point. […] It is believed that DNA-PK assembles on DNA and that in the absence of DNA that Ku and DNA-PKcs, are separate in solution. The addition of DNA to the Ku-^3H-IP6 complex results in a shift in the elution profile from the gel filtration column—the peak is broader (possibly owing to the mobility of the DNA) and has an earlier start point. […] Finally, the addition of DNA-PKcs, to the Ku-IP6DNA complex results in an additional increase in mobility along the gel filtration column. The species appears very large—near 670 kD—which is consistent with it containing Ku 70/80, ^3H-IP6, DNA-PKcs and DNA.
# skin cancer development = conditions: mice, given orally; cited from earlier work
# T4 DNA ligase = target: T3, T4 DNA ligase (Enterobacteria phage T4, UniProt P00970); test: T4 DNA ligation assay; format: biochemical; conditions: 2 μM IP6, T4 DNA ligase 0.1 u/μl, FIG. 6B
# T3 construct: purchased NEB
# T3 sequence (P00970 1-487): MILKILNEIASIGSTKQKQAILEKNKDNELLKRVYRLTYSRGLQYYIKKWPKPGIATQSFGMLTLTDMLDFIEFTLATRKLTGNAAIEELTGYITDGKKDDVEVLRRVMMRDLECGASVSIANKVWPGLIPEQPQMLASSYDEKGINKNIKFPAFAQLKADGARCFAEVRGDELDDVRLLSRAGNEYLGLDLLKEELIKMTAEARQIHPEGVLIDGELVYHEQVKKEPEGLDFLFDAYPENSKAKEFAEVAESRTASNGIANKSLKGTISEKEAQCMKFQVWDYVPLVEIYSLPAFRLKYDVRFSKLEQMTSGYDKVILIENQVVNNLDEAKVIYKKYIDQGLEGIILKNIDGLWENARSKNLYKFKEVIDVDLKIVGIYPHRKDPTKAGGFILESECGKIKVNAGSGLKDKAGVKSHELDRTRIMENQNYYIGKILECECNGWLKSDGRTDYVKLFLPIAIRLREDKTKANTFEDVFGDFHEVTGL
# Method: Reactions (10 μl) containing T4 DNA ligase (NEB) were carried out in 1×T4 DNA ligase buffer (NEB) at 25° C. in the presence and absence of inositol phosphates. Reactions were stopped, deproteinized and the products analyzed by agarose gel electrophoresis.
# Ku 70/80 heterodimer = target: T4, Ku 70/80 heterodimer (Homo sapiens, UniProt P12956+P13010); test: Gel filtration binding and competition analysis with purified Ku 70/80; conditions: for binding by Ku 70/80 heterodimer: gel filtration, FIG. 10-12; for loss in 3H-IP6 binding by Ku (competition): one molar equivalent of competitor
# T4 construct: made in house
# Method: as §1, §2
# The specificity of IP6 binding by Ku was examined by competition analysis (FIG. 13) using IP3, IP6 and IP7. […] These findings may be extended to postulate that while IP6 is bound by Ku, that the stimulatory effect of IP6 on NHEJ probably results from additional interactions that may be regulated by formation of the IP6-Ku complex.
compound,measurement,setting,value
"O=P(O)(O)O[C@H]1[C@@H](OP(=O)(O)O)[C@H](OP(=O)(O)O)[C@@H](OP(=O)(O)OP(=O)(O)O)[C@H](OP(=O)(O)O)[C@H]1OP(=O)(O)O [IP7 pp5, myo-5-diphosphoinositol 1,2,3,4,6-pentakisphosphate]",ability to stimulate DNA end-joining (NHEJ) by PC-C,[1],do stimulate NHEJ by PC-C
same,stimulation of NHEJ by PC-C relative to IP6,[1],approximately 10 fold
"O=P(O)(O)OC1C(OP(=O)(O)O)C(OP(=O)(O)O)C(OP(=O)(O)O)C(OP(=O)(O)O)C1OP(=O)(O)O (stereo not drawn) [IP6, myo-inositol 1,2,3,4,5,6-hexakisphosphate]",binding by DNA-PK,DNA-PK,capable of binding; also recorded: binds
same,concentration at which it functions as a phosphatase inhibitor,phosphatases,≥ 10 µM
same,interaction with DNA-PKcs,DNA-PKcs,does not interact
same,effect on skin cancer development,skin cancer development,reduces initiation of skin cancer development but not its promotion
same,effect on efficiency of ligation by T4 DNA ligase,T4 DNA ligase,unaffected; also recorded: no effect
same,binding by Ku 70/80 heterodimer,Ku 70/80 heterodimer,bind
same,binding by Ku 70/80 heterodimer,Ku 70/80 heterodimer; listed as 3H-IP6,binds
same,loss in 3H-IP6 binding by Ku (competition),Ku 70/80 heterodimer; FIG. 13,~50%
same,low concentration at which end-joining can be stimulated (discussion),[1],100 µM
same,concentration of maximal stimulation of end-joining by PC-C,[1]; FIG. 4B,1 µM
same,concentration at which end-joining by PC-C is stimulated,"[1]; FIG. 4B, commercially available IP6",~100 nM
same,ability to stimulate DNA end-joining (NHEJ) by PC-C,[1],most effective inositol phosphate compound of those tested; also recorded: stimulated end-joining by PC-C; also recorded: stimulate NHEJ of DNA
same,concentration that saturates the NHEJ system,[1],10 µM
same,Kd,[1],~1 µM
"O=P(O)(O)O[C@@H]1[C@@H](OP(=O)(O)O)[C@H](OP(=O)(O)O)[C@H](O)[C@H](OP(=O)(O)O)[C@H]1OP(=O)(O)O [IP5, myo-inositol 1,3,4,5,6-pentakisphosphate]",ability to stimulate DNA end-joining (NHEJ) by PC-C,[1],"able to stimulate end-joining, but the efficiency of this stimulation was reduced relative to IP6; also recorded: able to stimulate end-joining, though to a lesser extent; also recorded: stimulate NHEJ of DNA"
"O=S(=O)(O)OC1C(OS(=O)(=O)O)C(OS(=O)(=O)O)C(OS(=O)(=O)O)C(OS(=O)(=O)O)C1OS(=O)(=O)O (stereo not drawn) [IS6, inositol hexasulphate]",effect on the amount of 3H-IP6 bound by DNA-PK (competition),"DNA-PK; 10- and 100-fold molar excess, FIG. 9",does not compete; also recorded: no effect
same,ability to stimulate DNA end-joining (NHEJ) by PC-C,[1],unable to stimulate end-joining
"myo-inositol 1,4,5-trisphosphate [IP3]",binding by DNA-PK,DNA-PK,not
same,binding by DNA-PK,DNA-PK; listed as 3H-IP3,not altered by the presence of DNA-PK
same,effect on 3H-IP6 binding by Ku (competition),"Ku 70/80 heterodimer; 3-fold molar excess of competitor, FIG. 13",no effect
same,ability to stimulate DNA end-joining (NHEJ) by PC-C,[1],inhibitory; also recorded: does not stimulate NHEJ
same,ability to stimulate DNA end-joining (NHEJ) by PC-C,"[1]; listed as myo-inositol 1,4,5-trisphosphate",inhibit end-joining
"O=P(O)(O)OC1[C@H](O)[C@H](OP(=O)(O)O)C(OP(=O)(O)O)[C@H](OP(=O)(O)O)[C@H]1O (stereo partly drawn) [IP4, D-myo-inositol 1,3,4,5-tetrakisphosphate]",ability to stimulate DNA end-joining (NHEJ) by PC-C,[1],"able to stimulate end-joining, but the efficiency of this stimulation was reduced relative to IP6; also recorded: able to stimulate end-joining, though to a lesser extent; also recorded: stimulate NHEJ of DNA"
"O=P(O)(O)O[C@H]1[C@@H](OP(=O)(O)O)[C@@H](OP(=O)(O)O)[C@H](OP(=O)(O)OP(=O)(O)O)[C@@H](OP(=O)(O)O)[C@@H]1OP(=O)(O)O [IP7-pp6, myo-6-diphosphoinositol 1,2,3,4,5-pentakisphosphate]",ability to stimulate DNA end-joining (NHEJ) by PC-C,[1],do stimulate NHEJ by PC-C
same,stimulation of NHEJ by PC-C relative to IP6,[1],approximately 10 fold
"O=P(O)(O)OC1[C@@H](OP(=O)(O)O)[C@H](OP(=O)(O)O)C(OP(=O)(O)OP(=O)(O)O)[C@H](OP(=O)(O)O)[C@H]1OP(=O)(O)O (stereo partly drawn) [IP7, diphosphoinositol pentakisphosphate]",binding by DNA-PK,DNA-PK,binds
same,binding by Ku 70/80 heterodimer,Ku 70/80 heterodimer,bind
same,loss in 3H-IP6 binding by Ku (competition),Ku 70/80 heterodimer; FIG. 13,~50%
same,stimulation of NHEJ by PC-C relative to IP6,[1],10 fold
same,concentration that saturates the NHEJ system,[1],1 µM
same,Kd,[1],~100 µM
